Laboratory results from ChEMBL document CHEMBL5154900, “Design and Synthesis of Dual EZH2/BRD4 Inhibitors to Target Solid Tumors” (J Med Chem, 2022).
Activity calls are given as the source filed them. The rule behind the calls is not given here.

Tests used:
[1] = target: T1, Histone-lysine N-methyltransferase EZH2 (Homo sapiens, UniProt Q15910); experiment: Inhibition of EZH2 in human ASPC1 cells assessed as decrease in H3K27me3 levels at 1 uM incubated for 72 hrs by Western blot analysis; type: cell-based
Target sequence in this assay (Q15910 whole entry, looked up): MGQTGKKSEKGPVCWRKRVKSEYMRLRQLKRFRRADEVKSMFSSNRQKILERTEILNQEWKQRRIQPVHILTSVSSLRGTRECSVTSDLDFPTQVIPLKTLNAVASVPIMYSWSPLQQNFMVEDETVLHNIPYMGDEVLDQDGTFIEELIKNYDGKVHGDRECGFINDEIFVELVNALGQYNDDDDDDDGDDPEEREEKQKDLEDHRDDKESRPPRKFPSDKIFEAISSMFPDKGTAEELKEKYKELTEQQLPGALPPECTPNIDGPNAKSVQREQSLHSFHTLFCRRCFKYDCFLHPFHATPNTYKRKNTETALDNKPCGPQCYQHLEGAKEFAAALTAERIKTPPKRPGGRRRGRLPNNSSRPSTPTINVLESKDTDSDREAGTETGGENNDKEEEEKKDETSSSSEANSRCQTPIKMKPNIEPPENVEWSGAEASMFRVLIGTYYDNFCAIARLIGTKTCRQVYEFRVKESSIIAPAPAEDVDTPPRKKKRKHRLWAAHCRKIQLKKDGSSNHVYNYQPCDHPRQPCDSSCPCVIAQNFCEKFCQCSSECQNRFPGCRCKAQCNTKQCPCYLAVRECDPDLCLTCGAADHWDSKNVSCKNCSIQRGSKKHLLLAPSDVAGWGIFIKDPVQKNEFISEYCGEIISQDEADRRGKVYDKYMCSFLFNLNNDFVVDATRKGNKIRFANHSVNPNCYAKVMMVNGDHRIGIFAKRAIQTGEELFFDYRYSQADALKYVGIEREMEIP

ASPC1 = experiment: Antiproliferative activity against human ASPC1 cells assessed as cell growth inhibition incubated for 6 days by MTS assay; type: functional, cell-based; conditions: ASPC1, 144 h
[2] = target: T1, Histone-lysine N-methyltransferase EZH2
Target sequence in this assay (Q15910 whole entry): as the sequence (Q15910 whole entry, looked up) above

[3] = target: T2, Bromodomain-containing protein 4 (Homo sapiens, UniProt O60885); experiment: Displacement of fluorescein-labeled JQ1 from His6/TEV cleavage site fused human BRD4 (residues N44 to E168) expressed in Escherichia coli BL21 (DE3) incubated for 60 min by Fluorescence polarization assay
[4] = target: T2, Bromodomain-containing protein 4; experiment: Inhibition of BRD4 in human ASPC1 cells assessed as decrease in c-Myc level at 1 uM incubated for 72 hrs by Western blot analysis; type: cell-based
HCT-116 = experiment: Induction of apoptosis in human HCT116 cells assessed as early apoptotic cells at 10 uM measured after 72 hrs by flow cytometry (reference value: 2.8 %); type: functional

CCN(c1cc(-c2ccc(CCNC(=O)C[C@@H]3N=C(c4ccc(Cl)cc4)c4c(sc(C)c4C)-n4c(C)nnc43)cc2)cc(C(=O)NCc2c(C)cc(C)[nH]c2=O)c1C)C1CCOCC1
inhibition [1]: Active
IC50 (ASPC1; read-out: IC50): 2610 nM
IC50 [2]: 77800 nM
IC50 [3]: 945 nM

CCN(c1cc(-c2ccc(OCCCNC(=O)C[C@@H]3N=C(c4ccc(Cl)cc4)c4c(sc(C)c4C)-n4c(C)nnc43)cc2)cc(C(=O)NCc2c(C)cc(C)[nH]c2=O)c1C)C1CCOCC1
inhibition [4]: Active
IC50 (ASPC1; read-out: IC50): 1370 nM
IC50 [2]: 980 nM
IC50 [3]: 1720 nM

CCN(c1cc(-c2ccc(C(=O)NCCOCCNC(=O)C[C@@H]3N=C(c4ccc(Cl)cc4)c4c(sc(C)c4C)-n4c(C)nnc43)cc2)cc(C(=O)NCc2c(C)cc(C)[nH]c2=O)c1C)C1CCOCC1
inhibition [1]: Active
IC50 (ASPC1; read-out: IC50): 7090 nM
IC50 [2]: 300 nM
IC50 [3]: 248 nM

CCN(c1cc(-c2ccc(OCCNC(=O)C[C@@H]3N=C(c4ccc(Cl)cc4)c4c(sc(C)c4C)-n4c(C)nnc43)cc2)cc(C(=O)NCc2c(C)cc(C)[nH]c2=O)c1C)C1CCOCC1
inhibition [4]: Active
IC50 (ASPC1; read-out: IC50): 1860 nM
IC50 [2]: 7550 nM
IC50 [3]: 1540 nM

CCN(c1cc(-c2ccc(CNC(=O)C[C@@H]3N=C(c4ccc(Cl)cc4)c4c(sc(C)c4C)-n4c(C)nnc43)cc2)cc(C(=O)NCc2c(C)cc(C)[nH]c2=O)c1C)C1CCOCC1
inhibition [1]: Active
IC50 (ASPC1; read-out: IC50): 6500 nM
IC50 [2]: 29800 nM
IC50 [3]: 1480 nM

CCN(c1cc(-c2ccc(NC(=O)CCCCCCCNC(=O)C[C@@H]3N=C(c4ccc(Cl)cc4)c4c(sc(C)c4C)-n4c(C)nnc43)cc2)cc(C(=O)NCc2c(C)cc(C)[nH]c2=O)c1C)C1CCOCC1
IC50 (ASPC1; read-out: IC50): 17500 nM
IC50 [2]: 550 nM
IC50 [3]: 2340 nM

CCN(c1cc(-c2ccc(NC(=O)CCCCCCNC(=O)C[C@@H]3N=C(c4ccc(Cl)cc4)c4c(sc(C)c4C)-n4c(C)nnc43)cc2)cc(C(=O)NCc2c(C)cc(C)[nH]c2=O)c1C)C1CCOCC1
IC50 (ASPC1; read-out: IC50): 11200 nM
IC50 [2]: 530 nM
IC50 [3]: 580 nM

CCN(c1cc(-c2ccc(CN3CCOCC3)cc2)cc(C(=O)NCc2c(C)cc(C)[nH]c2=O)c1C)C1CCOCC1 [TAZEMETOSTAT]
Activity (HCT-116): 2.8%
IC50 (ASPC1; read-out: IC50): > 30000 nM

Cc1sc2c(c1C)C(c1ccc(Cl)cc1)=N[C@@H](CC(=O)OC(C)(C)C)c1nnc(C)n1-2
Activity (HCT-116): 20.3%
IC50 (ASPC1): 3390 nM

CCN(c1cc(-c2ccc(NC(=O)CCOCCOCCOCCNC(=O)C[C@@H]3N=C(c4ccc(Cl)cc4)c4c(sc(C)c4C)-n4c(C)nnc43)cc2)cc(C(=O)NCc2c(C)cc(C)[nH]c2=O)c1C)C1CCOCC1
IC50 (ASPC1; read-out: IC50): 9250 nM
IC50 [2]: 1040 nM
IC50 [3]: 604 nM

CCN(c1cc(-c2ccc(OCCCCNC(=O)C[C@@H]3N=C(c4ccc(Cl)cc4)c4c(sc(C)c4C)-n4c(C)nnc43)cc2)cc(C(=O)NCc2c(C)cc(C)[nH]c2=O)c1C)C1CCOCC1
inhibition [1]: Active
inhibition [4]: Active
IC50 (ASPC1; read-out: IC50): 990 nM
IC50 [2]: 420 nM
IC50 [3]: 82 nM

CCN(c1cc(-c2ccc(NC(=O)C[C@@H]3N=C(c4ccc(Cl)cc4)c4c(sc(C)c4C)-n4c(C)nnc43)cc2)cc(C(=O)NCc2c(C)cc(C)[nH]c2=O)c1C)C1CCOCC1
IC50 (ASPC1; read-out: IC50): 13800 nM
IC50 [2]: 16100 nM
IC50 [3]: 2840 nM
